According to ChEMBL document CHEMBL5724558, “Image-based profiling of drug vulnerabilities in CRC organoids” (2024):
“And” between values parts separate entries of the source, which are not always exact repeats. Equal values may be shown once.

How the values were obtained:
Type in all cases: functional, Homo sapiens
Set-up in all cases: dose or concentration left out as unconfirmed
[1] = system: Colon cancer organoid; test: (§1) Image-based profiling of donated chemical probes and chemogenomic kinase set in O21 CRC organoid. Image analysis is performed on the sum area metric, and the data were normalized to the DMSO control. After imaging the organoid viability is measured using the OneGloEX Luciferase Assay System. The normalized viability data and sum area are reported.
[2] = system: Colon cancer organoid; test: as §1, with “O09” for “O21”
[3] = system: Colon cancer organoid; test: as §1, with “O06” for “O21”

| SMILES | Cell Viability ([1]; Replication number 1) | Cell Viability ([1]; Replication number 2) | Cell Viability ([2]; Replication number 1) | Cell Viability ([2]; Replication number 2) | Cell Viability ([3]; Replication number 1) | Cell Viability ([3]; Replication number 2) |
| --- | --- | --- | --- | --- | --- | --- |
| O=C(NC[C@@H]1[C@H]2CN(C(=O)OCc3cc(C(F)(F)F)cc(C(F)(F)F)c3)C[C@@H]12)c1ccc2[nH]nnc2c1 [BI 2545] | 93.6308% and 96.6365% | 84.4904% and 89.2857% | 189.417% and 138.094% | 118.998% and 92.5885% | 131.534% and 122.248% | 107.128% and 130.293% |
| Cc1nccc(COC(=O)N2C[C@@H]3[C@@H](CNC(=O)c4ccc5[nH]nnc5c4)[C@@H]3C2)n1 [BI 3017] | 96.5552% and 87.3221% | 97.9165% and 92.8571% | 118.304% and 89.116% | 133.367% and 124.133% | 85.9577% and 77.5176% | 101.815% and 101.392% |
| Cn1nc(C(=O)NCc2ccc(C(=O)O)cc2)cc1-c1ccc2[nH]ccc2c1 [BI 4395] | 90.5249% and 84.9935% | 78.9736% and 83.6735% | 118.116% and 98.6727% | 113.973% and 124.717% | 93.2096% and 84.0749% | 51.0154% and 42.4045% |
| Cn1c(C2(NC(=O)c3ccc(NCC4CCCCC4)nc3)CCC2)nc2ccc(/C=C/C(=O)O)cc21 [BI 7656] | 95.8092% and 94.6419% | 106.526% and 92.3751% | 151.482% and 117.548% | 136.087% and 97.2553% | 99.3838% and 109.64% | 121.504% and 124.591% |
| C[C@@]1(Cc2ccc(C#N)cc2)C(=O)N(c2cc(Cl)cc(Cl)c2)c2ncc(C(=O)NC3(c4nc(C5CCC5)no4)CC3)n21 [BI 9446] | 115.902% and 114.683% | 106.853% and 94.898% | 73.271% and 85.2933% | 87.2778% and 108.945% | 120.452% and 119.438% | 141.276% and 120.817% |
| CC(=O)N1CCC(c2ccc(C(=O)NC(=N)N)cc2C(F)(F)F)CC1 [BI 9627] | 89.2518% and 118.176% | 98.5958% and 100.51% | 138.648% and 103.929% | 116.481% and 107.777% | 92.5077% and 96.2529% | 95.2505% and 62.3038% |
| CCC(=O)N[C@H]1CC[C@@H](C(=O)N(C)c2ccc(-c3nc4ccccc4o3)cc2)C1 [BI 99179] | 140.434% and 105.951% | 114.409% and 97.9592% | 70.0522% and 46.8277% | 52.7511% and 35.3414% | 21.7258% and 60.1874% | 30.1767% and 66.0942% |
| CCC(=O)N[C@@H]1CC[C@H](C(=O)N(C)c2ccc(-c3nc4ccccc4o3)cc2)C1 [BI 99990] | 98.1271% and 82.0828% | 97.1544% and 80.6122% | 148.115% and 99.6283% | 106.898% and 85.8708% | 114.692% and 101.874% | 112.935% and 105.893% |
| CCS(=O)(=O)c1cc2cc(C[C@](O)(CC(C)(C)c3ccc(F)cc3C(N)=O)C(F)(F)F)[nH]c2cn1 [BI 653048] | 95.8907% and 94.89% | 87.1647% and 83.1633% | 139.667% and 102.973% | 122.797% and 92.0044% | 90.5623% and 97.4239% | 82.9692% and 113.237% |
| CC[C@H](CC(=O)O)n1c(=O)c2ncccc2n(Cc2cn(C)c3cc(C)cc(C)c23)c1=O [BI-1942] | 98.903% and 90.5784% | 95.5994% and 107.07% | 76.1388% and 88.7208% | 109.791% and 100.317% | 122.43% and 127.53% | 114.507% and 111.004% |
| CN(C)C(=O)c1sc2nc(N3CCC(S(C)(=O)=O)CC3)cc(C(F)(F)F)c2c1N [BI-5026] | 97.3% and 81.8479% | 110.845% and 100.952% | 136.068% and 99.7874% | 102.802% and 111.221% | 118.242% and 106.64% | 81.5646% and 70.3988% |
| CCC(F)(F)c1cc(N2CCC(S(C)(=O)=O)CC2)nc2sc(C(N)=O)c(N)c12 [BI-605906] | 102.215% and 104.22% | 98.7028% and 111.659% | 110.631% and 99.0371% | 105.468% and 104.877% | 130.001% and 116.599% | 81.7833% and 117.011% |
| CCOc1ccn(-c2ccc(F)cc2)c(=O)c1C(=O)Nc1ccc(Oc2ccnc(N)c2Cl)c(F)c1 [BMS-777607] | 134.256% and 110.941% | 106.617% and 115.725% | 102.993% and 102.228% | 97.5395% and 82.0651% | 96.7201% and 108.61% | 116.766% and 115.578% |
| O=c1nc(-c2ccccn2)sc2ccccc12 [BTZO-1] | 137.995% and 94.89% | 98.0739% and 81.1225% | 107.798% and 116.353% | 106.736% and 92.2965% | 100.751% and 107.26% | 110.744% and 103.05% |
| O=C1NC(c2ccccn2)Sc2ccccc21 (stereo not given) [BTZO-4] | 96.9189% and 94.3079% | 102.382% and 84.6939% | 89.6903% and 76.6923% | 179.626% and 125.593% | 80.1051% and 90.1639% | 101.963% and 109.92% |
| C=CC(=O)Nc1ccc2[nH]c(=O)n(C3CCN(Cc4ccc(-c5nc6cc[nH]c(=O)c6cc5-c5ccccc5)cc4)CC3)c2c1 [Borussertib] | 72.0097% and 96.5806% | 66.1245% and 78.518% | 27.7912% and 48.9559% | 42.376% and 51.9429% | 53.8202% and 93.0364% | 55.5643% and 106.199% |
| O=C(NOCC1CC1)c1ccc(F)c(F)c1Nc1ccc(I)cc1Cl [CI-1040] | 35.0082% and 32.446% | 40.3855% and 37.5387% | 15.162% and 31.6659% | 27.5568% and 31.5843% | 3.322% and 9.147% | 3.495% and 11.5373% |
| O=C(c1ccc(F)c(F)c1Nc1ccc(I)cc1F)N1CC(O)([C@@H]2CCCCN2)C1 [COBIMETINIB] | 18.944% and 20.5157% | 17.3316% and 26.4843% | 5.994% and 14.4616% |  | 2.921% and 4.652% | 3.136% and 6.437% |
| COCC(=O)NC/C=C/c1ccc2ncnc(Nc3ccc(Oc4ccc(C)nc4)c(C)c3)c2c1 [CP-724714] | 88.8144% and 89.7561% | 117.053% and 106.513% | 68.0715% and 78.0427% | 150.035% and 112.57% | 34.9461% and 62.9851% | 41.6567% and 67.0437% |
| CN([C@@H]1CCc2c(CC(=O)O)c3cc(S(C)(=O)=O)ccc3n2C1)S(=O)(=O)c1ccc(F)cc1 [CRTH2-negative-control] | 114.066% and 111.772% | 101.538% and 90.3061% | 103.344% and 126.626% | 95.2483% and 103.103% | 102.982% and 101.171% | 44.9133% and 103.761% |
| CNC(=O)c1ccc(Nc2ncc(C(F)(F)F)c(NCc3nccnc3N(C)S(C)(=O)=O)n2)cc1 [DEFACTINIB] | 89.1869% and 86.74% | 98.5669% and 117.347% | 29.7376% and 36.5543% | 24.312% and 22.1979% | 124.45% and 120.141% | 102.609% and 90.0207% |
| Cn1c(C2(NC(=O)c3ccc4c(C5CCCC5)c(-c5ncc(Br)cn5)n(C)c4c3)CCC2)nc2ccc(/C=C/C(=O)O)cc21 [DELEOBUVIR] | 112.195% and 113.344% | 113.774% and 112.777% | 177.935% and 120.27% | 86.2792% and 92.0585% | 72.8568% and 101.611% | 116.691% and 122.099% |
| Cn1cc(C2=C(c3cn(C4CCN(Cc5ccccn5)CC4)c4ccccc34)C(=O)NC2=O)c2ccccc21 [ENZASTAURIN] | 107.446% and 117.631% | 96.9547% and 121.483% | 88.965% and 63.5811% | 82.186% and 57.4996% | 30.0951% and 84.3511% | 45.1765% and 67.455% |
| C[C@H](NC(=O)Nc1cc2[nH]ncc2c(CO)n1)c1ccccn1 [ERKi-NC] | 112.403% and 96.6365% | 96.9008% and 86.2245% | 84.2492% and 86.249% | 90.2054% and 105.732% | 123.043% and 110.304% | 54.2126% and 97.1276% |
| C[C@@H](NC(=O)Nc1cc2[nH]ncc2c(CO)n1)c1ccccc1 [ERKi] | 47.444% and 52.6843% | 54.1158% and 53.5714% | 38.3769% and 59.9681% | 20.7917% and 30.6681% | 27.1255% and 47.7752% | 41.1023% and 64.199% |
| O=C(Nc1nc2cccc(-c3ccc(CN4CCS(=O)(=O)CC4)cc3)n2n1)C1CC1 [FILGOTINIB] | 108.054% and 94.216% | 115.207% and 111.119% | 112.727% and 81.0348% | 92.6922% and 97.9922% | 93.5364% and 106.162% | 112.473% and 105.09% |
